The results in this text go back to patent EP1137645B1, “ALPHA-METHYLBENZYL-CONTAINING THIOUREA INHIBITORS OF HERPES VIRUSES CONTAINING A […] GROUP” (Wyeth, priority 1998, dated 2000).

The subject of assay [1] is HCMV recombinant mutant virus whose genome contains the prokaryotic beta-glucuronidase gene. The assay is described as follows: microbe, parasite or virus in culture. It counts as cell-based, human cytomegalovirus. The note with it: Human betaherpesvirus 5, Fibroblast. Summed up:
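Antiviral IC50 estimated from reduced reporter activity across compound amounts: lysates prepared 96 h after infection were tested with p-nitrophenyl- or methylumbelliferyl-glucuronide. Cells were human foreskin fibroblasts, infected alongside inhibitor with HCMV (e.g. RV145) expressing viral promoter-driven beta-glucuronidase.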

Assay [2] deals with HSV- I. Nature of the assay: HSV antiviral (ELISA) assay. It counts as cell-based. To be noted: read-out: IC50 (ug/ml) HSV. Summed up:
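IC50 from fluorescence versus untreated control in a cell ELISA: anti-glycoprotein D antibody, β-galactosidase-conjugated secondary, 4-methyl umbelliferone read at 365/450 nm. Vero cells (2% FBS DMEM) received compound 30 min pre-infection with HSV-1 at MOI 0.006, fixed ~24 h post-infection.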
A general note: ELISA stands for enzyme-linked immunosorbent assay.

Assay [3] deals with VZV strain Ellen. Nature of the assay: VZV antiviral (ELISA) assay. It counts as cell-based. The gist of the method: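 HFF cells infected with VZV Ellen at multiplicity below 0.1 overnight, then mixed infected/uninfected cells seeded with compound in DMEM/2% FBS and incubated three days at 37°C, 5% CO2.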
The mark [4] stands for this setting: read-out: IC50 ug/ml HCMV, HCMV, human foreskin fibroblasts.
Where [5] appears, read: Human alphaherpesvirus 3, HFF, read-out: IC50 (ug/ml) VZV.
The mark [6] stands for this setting: Human alphaherpesvirus 3, HFF, read-out: IC50 (ug/ml) VZV, VZV strain Ellen, HFF cells, ELISA.
The mark [7] stands for this setting: Human alphaherpesvirus 3, VZV strain Ellen, HFF cells, ELISA, read-out: IC50 (ug/ml) VZV.

Molecules are shown by their SMILES. Converted amounts (≈) assume the structure as drawn. Read-outs that look alike come from different tables or passages of the source.

Consider `CC(NC(=S)Nc1ccc(NC(=O)c2cc3ccccc3o2)cc1)c1ccc(F)cc1` (stereo not drawn) [Example 980, Benzofuran-2-carboxylic acid (4-{3-[1-(4-fluoro-phenyl)-ethyl]-thioureido}-phenyl)-amide], for which the IC50 in assay [1] (setting [4]) was over 10 µg/mL; in assay [2] (HSV- I, Vero cells, ELISA), over 10 µg/mL; in assay [3] (setting [5]), 0.15 µg/mL (≈ 0.346 µM).
As for `CC(NC(=S)Nc1ccc(NC(=O)c2cc3ccccc3o2)cc1)c1cc2ccccc2o1` (stereo not drawn) [Example 981, Benzofuran-2-carboxylic acid {4-[3-(1-benzofuran-2-yl-ethyl)-thioureido]-phenyl}-amide], the IC50 is over 10 µg/mL in assay [1] (setting [4]); over 10 µg/mL in assay [2] (HSV- I, Vero cells, ELISA); 0.2 µg/mL (≈ 0.439 µM) in assay [3] (setting [5]).
Turning to `CC(NC(=S)Nc1ccc(NC(=O)c2cc3ccccc3o2)cc1)c1ccc(Br)cc1` (stereo not drawn) [Example 982, Benzofuran-2-carboxylic acid (4-{3-[1-(4-bromo-phenyl)-ethyl]-thioureido}-phenyl)-amide], the IC50 in assay [1] (setting [4]) is 1.3 µg/mL (≈ 2.63 µM); in assay [2] (HSV- I, Vero cells, ELISA), over 10 µg/mL; in assay [3] (setting [5]) it was 0.1 µg/mL (≈ 0.202 µM).
In the same order, the values of `CC(NC(=S)Nc1ccc(NC(=O)c2cc3ccccc3o2)cc1)c1ccc(C#N)cc1` (stereo not drawn) [Example 983, Benzofuran-2-carboxylic acid (4-{3-[1-(4-cyano-phenyl)-ethyl]-thioureido}-phenyl)-amide] are 1.1 µg/mL (≈ 2.5 µM), over 10 µg/mL and 0.6 µg/mL (≈ 1.36 µM).
On to `CC(NC(=S)Nc1ccc(NC(=O)c2cc3ccccc3cn2)cc1)c1cc2ccccc2o1` (stereo not drawn) [Example 985, Isoquinoline-3-carboxylic acid {4-[3-(1-benzofuran-2-yl-ethyl)-thioureido]-phenyl}-amide], for which the IC50 was over 10 µg/mL in assay [1] (setting [4]), over 10 µg/mL in assay [2] (Vero) and 0.035 µg/mL (≈ 0.075 µM) in assay [3] (setting [6]).
Consider `CC(NC(=S)Nc1ccc(NC(=O)c2cc3ccccc3cn2)cc1)c1ccc(C#N)cc1` (stereo not drawn) [Example 986, Isoquinoline-3-carboxylic acid (4-{3-[1-(4-cyano-phenyl)-ethyl]-thioureido}-phenyl)-amide], for which the IC50 in assay [1] (setting [4]) is 5.2 µg/mL (≈ 11.5 µM); in assay [2] (Vero), over 10 µg/mL; in assay [3] (setting [6]), 0.05 µg/mL (≈ 0.111 µM).
In the same order, the values of `CC(NC(=S)Nc1ccc(NC(=O)c2cc3ccccc3cn2)cc1)c1ccc(Br)cc1` (stereo not drawn) [Example 987, Isoquinoline-3-carboxylic acid (4-{3-[1-(4-bromo-phenyl)-ethyl]-thioureido}-phenyl)-amide] are 1.5 µg/mL (≈ 2.97 µM), 3 µg/mL (≈ 5.94 µM) and 0.046 µg/mL (≈ 0.091 µM).
Turning to `CC(NC(=S)Nc1ccc(NC(=O)c2cnc3ccccc3c2)cc1)c1ccc(F)cc1` (stereo not drawn) [Example 988, Quinoline-3-carboxylic acid (4-{3-[1-(4-fluoro-phenyl)-ethyl]-thioureido}-phenyl)-amide], the IC50 in assay [1] (setting [4]) was over 10 µg/mL; in assay [2] (HSV- I, Vero cells, ELISA) it was over 10 µg/mL; in assay [3] (setting [5]), 3.4 µg/mL (≈ 7.65 µM).
In the case of `CC(NC(=S)Nc1ccc(NC(=O)c2ccnc3ccccc23)cc1)c1ccc(F)cc1` (stereo not drawn) [Example 989, Quinoline-4-carboxylic acid (4-{3-[1-(4-fluoro-phenyl)-ethyl]-thioureido}-phenyl)-amide], the IC50 in assay [1] (setting [4]) was determined as 2.9 µg/mL (≈ 6.52 µM); in assay [2] (HSV- I, Vero cells, ELISA), 4.1 µg/mL (≈ 9.22 µM); in assay [3] (setting [5]), 3 µg/mL (≈ 6.75 µM).
On the same counts, the results for `CC(NC(=S)Nc1ccc(NC(=O)c2ccc3ncccc3c2)cc1)c1ccc(F)cc1` (stereo not drawn) [Example 990, Quinoline-6-carboxylic acid (4-{3-[1-(4-fluoro-phenyl)-ethyl]-thioureido}-phenyl)-amide] are 4.4 µg/mL (≈ 9.9 µM), 8.9 µg/mL (≈ 20 µM) and 3.5 µg/mL (≈ 7.87 µM).
On the same counts, the results for `CC(NC(=S)Nc1ccc(NC(=O)c2cccc3cccnc23)cc1)c1ccc(F)cc1` (stereo not drawn) [Example 991, Quinoline-8-carboxylic acid (4-{3-[1-(4-fluoro-phenyl)-ethyl]-thioureido}-phenyl)-amide] are 7.4 µg/mL (≈ 16.6 µM), over 10 µg/mL and 0.1 µg/mL (≈ 0.225 µM).
`CC(C)COc1ccc(NC(=S)Nc2ccc(NC(=O)c3ccccc3F)cc2)cc1Cl` [Example 994, N-{4-[3-(3-Chloro-4-isobutoxy-phenyl)-thioureido]-phenyl}-2-fluoro-benzamide]: the IC50 in assay [1] (setting [4]), in assay [2] (Vero) and in assay [3] (setting [6]) was over 10 µg/mL each time.
Turning to `COc1ccc(NC(=S)Nc2ccc(NC(=O)c3ccccc3F)cc2)cc1F` [Example 995, 2-Fluoro-N-{4-[3-(3-fluoro-4-methoxy-phenyl)-thioureido]-phenyl}-benzamide], the IC50 in assay [1] (read-out: IC50 ug/ml HCMV) was over 10 µg/mL; in assay [2] (HSV- I, Vero cells, ELISA), over 10 µg/mL; in assay [3] (setting [7]), over 10 µg/mL.
In the case of `COCCOc1ccc(NC(=S)Nc2ccc(NC(=O)c3ccccc3F)cc2)cc1Cl` [Example 996, N-(4-{3-[3-Chloro-4-(2-methoxy-ethoxy)-phenyl]-thioureido}-phenyl)-2-fluoro-benzamide], the IC50 in assay [1] (setting [4]) is over 10 µg/mL; in assay [2] (Vero), over 10 µg/mL; in assay [3] (setting [6]), 10 µg/mL (≈ 21.1 µM).
Regarding `Cc1ccc(NC(=S)Nc2ccc(NC(=O)c3ccccc3F)cc2)cc1F` [Example 997, 2-Fluoro-N-{4-[3-(3-fluoro-4-methyl-phenyl)-thioureido]-phenyl}-benzamide], the IC50 was 4 µg/mL (≈ 10.1 µM) in assay [1] (read-out: IC50 ug/ml HCMV); 1.9 µg/mL (≈ 4.78 µM) in assay [2] (HSV- I, Vero cells, ELISA); over 10 µg/mL in assay [3] (setting [7]).
For the molecule `COc1ccc(NC(=S)Nc2ccc(NC(=O)c3ccccc3F)cc2)cc1C(F)(F)F` [Example 998, 2-Fluoro-N-{4-[3-(4-methoxy-3-trifluoromethyl-phenyl)-thioureido]-phenyl}-benzamide], the IC50 was over 10 µg/mL in assay [1] (read-out: IC50 ug/ml HCMV); 3 µg/mL (≈ 6.47 µM) in assay [2] (HSV- I, Vero cells, ELISA); 5 µg/mL (≈ 10.8 µM) in assay [3] (setting [7]).
In the same order, the values of `Nc1ccc(C(F)(F)F)cc1NC(=S)Nc1ccc(NC(=O)c2ccccc2F)cc1` [Example 999, N-{4-[3-(2-Amino-5-trifluoromethyl-phenyl)-thioureido]-phenyl}-2-fluoro-benzamide] are 4 µg/mL (≈ 8.92 µM), 2.2 µg/mL (≈ 4.91 µM) and 9.4 µg/mL (≈ 21 µM).
As for `COc1ccc(C(C)NC(=S)Nc2ccc(NC(=O)c3ccccc3F)cc2)cc1Cl` (stereo not drawn) [Example 1000, N-(4-{3-[1-(3-Chloro-4-methoxy-phenyl)-ethyl]-thioureido}-phenyl)-2-fluoro-benzamide], the figures for the IC50 in assay [1] (setting [4]), in assay [2] (Vero) and in assay [3] (setting [6]) were 2 µg/mL (≈ 4.37 µM), over 10 µg/mL and 6 µg/mL (≈ 13.1 µM), respectively.
`O=C(Nc1ccc(NC(=S)Nc2cc(Cl)ccc2O)cc1)c1ccccc1F` [Example 1001, N-{4-[3-(5-Chloro-2-hydroxy-phenyl)-thioureido]-phenyl}-2-fluoro-benzamide]: the IC50 in assay [1] (setting [4]) is 2.6 µg/mL (≈ 6.25 µM); in assay [2] (Vero), 4.3 µg/mL (≈ 10.3 µM); in assay [3] (setting [6]) it was 3.6 µg/mL (≈ 8.66 µM).
In the same order, the values of `CC(NC(=S)Nc1ccc(NC(=O)c2ccccc2F)cc1)c1cc2ccccc2o1` (stereo not drawn) [Example 1002, N-{4-[3-(1-Benzofuran-2-yl-ethyl)-thioureido]-phenyl}-2-fluoro-benzamide] are 2.1 µg/mL (≈ 4.84 µM), over 10 µg/mL and 0.08 µg/mL (≈ 0.185 µM).
On to `Cc1ccc(NC(=S)Nc2ccc(NC(=O)c3ccccc3F)cc2)cc1C(F)(F)F` [Example 1003, 2-Fluoro-N-{4-[3-(4-methyl-3-trifluoromethyl-phenyl)-thioureido]-phenyl}-benzamide], for which the IC50 in assay [1] (read-out: IC50 ug/ml HCMV) was over 10 µg/mL; in assay [2] (HSV- I, Vero cells, ELISA), over 10 µg/mL; in assay [3] (setting [7]), over 10 µg/mL.
With `C[C@H](NC(=S)Nc1ccc(NC(=O)c2ccccc2F)cc1)c1ccc(Br)cc1` [Example 1004, (S)-N-(4-{3-[1-(4-Bromo-phenyl)-ethyl]-thioureido}-phenyl)-2-fluoro-benzamide], the results for the IC50 in assay [1] (setting [4]), in assay [2] (Vero) and in assay [3] (setting [6]) were 4.2 µg/mL (≈ 8.89 µM), over 10 µg/mL and 0.06 µg/mL (≈ 0.127 µM), respectively.
With `COc1cc(OCC(F)(F)F)ccc1NC(=S)Nc1ccc(NC(=O)c2ccccc2F)cc1` [Example 1006, 2-Fluoro-N-(4-{3-[2-methoxy-4-(2,2,2-trifluoro-ethoxy)-phenyl]-thioureido}-phenyl)-benzamide], the IC50 in assay [1] (read-out: IC50 ug/ml HCMV) came to 8.9 µg/mL (≈ 18 µM); in assay [2] (HSV- I, Vero cells, ELISA), 8.3 µg/mL (≈ 16.8 µM); in assay [3] (setting [7]), 11 µg/mL (≈ 22.3 µM).
With `Nc1ccc(F)cc1NC(=S)Nc1ccc(NC(=O)c2ccccc2F)cc1` [Example 1007, N-{4-[3-(2-Amino-5-fluoro-phenyl)-thioureido]-phenyl}-2-fluoro-benzamide], the IC50 is over 10 µg/mL in assay [1] (read-out: IC50 ug/ml HCMV); 1.2 µg/mL (≈ 3.01 µM) in assay [2] (HSV- I, Vero cells, ELISA); over 10 µg/mL in assay [3] (setting [7]).
Regarding `CC(NC(=S)Nc1ccc(NC(=O)c2ccccc2F)cc1)c1ccc(S(=O)(=O)N(C)C)cc1` (stereo not drawn) [Example 1008, N-(4-{3-[1-(4-Dimethylsulfamoyl-phenyl)-ethyl]-thioureido}-phenyl)-2-fluoro-benzamide], the IC50 is 8.5 µg/mL (≈ 17 µM) in assay [1] (setting [4]), over 10 µg/mL in assay [2] (Vero) and over 10 µg/mL in assay [3] (setting [6]).
`CC(NC(=S)Nc1ccc(NC(=O)c2ccccc2F)cc1)c1ccc(S(=O)(=O)N2CCCCC2)cc1` (stereo not drawn) [Example 1009, 2-Fluoro-N-[4-(3-{1-[4-(piperidine-1-sulfonyl)-phenyl]-ethyl}-thioureido)-phenyl]-benzamide]: the IC50 in assay [1] (setting [4]), in assay [2] (Vero) and in assay [3] (setting [6]) was over 10 µg/mL throughout.
